{"source": "patent US20090088578A1", "about": "“NUCLEAR MAGNETIC RESONANCE IMAGING OF SELECTIVE SMALL MOLECULE DRUGS AS CONTRAST AGENTS” (priority 2007, published 2009)", "origin": "cited, not measured here", "molecular_target": "T1, aldehyde dehydrogenase 1 (Homo sapiens, UniProt P00352)", "T1 sequence (P00352 1-501)": "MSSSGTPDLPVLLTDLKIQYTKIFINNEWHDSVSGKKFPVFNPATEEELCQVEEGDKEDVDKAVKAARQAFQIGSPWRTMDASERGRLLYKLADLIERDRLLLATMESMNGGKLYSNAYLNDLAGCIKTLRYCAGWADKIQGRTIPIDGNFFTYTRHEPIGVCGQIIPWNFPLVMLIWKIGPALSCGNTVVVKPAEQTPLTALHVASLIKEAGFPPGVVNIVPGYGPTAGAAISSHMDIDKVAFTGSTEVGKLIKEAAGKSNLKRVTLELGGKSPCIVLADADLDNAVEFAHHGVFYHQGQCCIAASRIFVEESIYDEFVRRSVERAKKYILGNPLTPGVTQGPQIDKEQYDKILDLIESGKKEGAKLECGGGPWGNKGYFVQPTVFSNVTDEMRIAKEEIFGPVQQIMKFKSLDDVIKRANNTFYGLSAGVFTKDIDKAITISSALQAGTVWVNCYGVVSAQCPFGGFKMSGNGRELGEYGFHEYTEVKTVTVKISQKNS", "settings": "one of its two known protein targets"}
{"smiles": "CCN(CC)CCCC(C)Nc1ccnc2cc(Cl)ccc12", "note": "(stereo not shown) [Chloroquine, chloroquine]", "values": [{"measurement": "affinity for aldehyde dehydrogenase 1", "value": "low affinity"}]}
